Measured values as given in ChEMBL document CHEMBL2073965, “Kinetic analysis of the primary active transport of conjugated metabolites across the bile canalicular membrane: comparative study of S-(2,4-dinitrophenyl)-glutathione and 6-hydroxy-5,7-dimethyl-2-methylamino-4-(3-pyridylmethyl)benzothiazole glucuronide” (J Pharmacol Exp Ther, 1997).

Key:
Assay type in all cases: functional, cell membranes, Sprague-Dawley, Bile canalicular membrane vesicle
[1] = target: T1, ATP-binding cassette sub-family C member 2 (Rattus norvegicus, UniProt Q63120); assay: TP_TRANSPORTER: inhibition of DNP-SG uptake in bile canalicular membrane vesicles from SD rat
[2] = target: T1, ATP-binding cassette sub-family C member 2; assay: TP_TRANSPORTER: inhibition of DNP-SG uptake (DNP-SG: 1 uM, 4MUG: 500 uM) in bile canalicular membrane vesicles from SD rat
[3] = substrate: N[C@@H](CCC(=O)N[C@H](CSc1ccc([N+](=O)[O-])cc1[N+](=O)[O-])C(=O)NCC(=O)O)C(=O)O; assay: (§1) TP_TRANSPORTER: uptake in bile canalicular membrane vesicles from SD rat
[4] = substrate: CNc1nc2c(Cc3cccnc3)c(C)c(O[C@@H]3O[C@H](C(=O)O)[C@@H](O)[C@H](O)[C@H]3O)c(C)c2s1; assay: as §1

## CNc1nc2c(Cc3cccnc3)c(C)c(O[C@@H]3O[C@H](C(=O)O)[C@@H](O)[C@H](O)[C@H]3O)c(C)c2s1 [E3040 GLUCURONIDE]
[1]
  Ki: 3.84 µM

## O=C(O)[C@H]1O[C@@H](OCc2cc(=O)oc3cc(O)ccc23)[C@H](O)[C@@H](O)[C@@H]1O
[2]
  Activity: inhibitor [+]

B1: ATP-binding cassette sub-family C member 2 (Rattus norvegicus) (protein)
chain: MDKFCNSTFWDLSLLESPEADLPLCFEQTVLVWIPLGFLWLLAPWQLYSVYRSRTKRSSITKFYLAKQVFVVFLLILAAIDLSLALTEDTGQATVPPVRYTNPILYLCTWLLVLAVQHSRQWCVRKNSWFLSLFWILSVLCGVFQFQTLIRALLKDSKSNMAYSYLFFVSYGFQIVLLILTAFSGPSDSTQTPSVTASFLSSITFSWYDRTVLKGYKHPLTLEDVWDIDEGFKTRSVTSKFEAAMTKDLQKARQAFQRRLQKSQRKPEATLHGLNKKQSQSQDVLVLEEAKKKSEKTTKDYPKSWLIKSLFKTFHVVILKSFILKLIHDLLVFLNPQLLKLLIGFVKSSNSYVWFGYICAILMFAVTLIQSFCLQSYFQHCFVLGMCVRTTVMSSIYKKALTLSNLARKQYTIGETVNLMSVDSQKLMDATNYMQLVWSSVIQITLSIFFLWRELGPSILAGVGVMVLLIPVNGVLATKIRNIQVQNMKNKDKRLKIMNEILSGIKILKYFAWEPSFQEQVQGIRKKELKNLLRFGQLQSLLIFILQITPILVSVVTFSVYVLVDSANVLNAEKAFTSITLFNILRFPLSMLPMVTSSILQASVSVDRLERYLGGDDLDTSAIRRVSNFDKAVKFSEASFTWDPDLEATIQDVNLDIKPGQLVAVVGTVGSGKSSLVSAMLGEMENVHGHITIQGSTAYVPQQSWIQNGTIKDNILFGSEYNEKKYQQVLKACALLPDLEILPGGDMAEIGEKGINLSGGQKQRVSLARAAYQDADIYILDDPLSAVDAHVGKHIFNKVVGPNGLLAGKTRIFVTHGIHFLPQVDEIVVLGKGTILEKGSYRDLLDKKGVFARNWKTFMKHSGPEGEATVNNDSEAEDDDDGLIPTMEEIPEDAASLAMRRENSLRRTLSRSSRSSSRRGKSLKNSLKIKNVNVLKEKEKEVEGQKLIKKEFVETGKVKFSIYLKYLQAVGWWSILFIILFYGLNNVAFIGSNLWLSAWTSDSDNLNGTNNSSSHRDMRIGVFGALGLAQGICLLISTLWSIYACRNASKALHGQLLTNILRAPMRFFDTTPTGRIVNRFSGDISTVDDLLPQTLRSWMMCFFGIAGTLVMICMATPVFAIIIIPLSILYISVQVFYVATSRQLRRLDSVTKSPIYSHFSETVTGLPIIRAFEHQQRFLAWNEKQIDINQKCVFSWITSNRWLAIRLELVGNLVVFCSALLLVIYRKTLTGDVVGFVLSNALNITQTLNWLVRMTSEAETNIVAVERISEYINVENEAPWVTDKRPPADWPRHGEIQFNNYQVRYRPELDLVLKGITCNIKSGEKVGVVGRTGAGKSSLTNCLFRILESAGGQIIIDGIDVASIGLHDLRERLTIIPQDPILFSGSLRMNLDPFNKYSDEEVWRALELAHLRSFVSGLQLGLLSEVTEGGDNLSIGQRQLLCLGRAVLRKSKILVLDEATAAVDLETDSLIQTTIRKEFSQCTVITIAHRLHTIMDSDKIMVLDNGKIVEYGSPEELLSNRGSFYLMAKEAGIENVNHTEL
[3]
  Km: 17.6 µM
[4]
  Km: 5.7 µM
